ChEMBL document CHEMBL5537170, “Design, Synthesis, and Anti-Osteoporotic Characterization of Arginine N-Glycosylated Teriparatide Analogs via the Silver-catalyzed Solid-Phase Glycosylation Strategy” (J Med Chem, 2024)
*1 amine or outer side, *2 acyl side, *3 side chain or, on linkers, in order; H or OH if unused. Where a SMILES comes first, the peptide text is derived from it. [ ]: non-standard residue; d: D form. X6 = C[C@@H]1O[C@@H](NC(=N)NCCC[C@H](N[*:1])C(=O)[*:2])[C@H](O)[C@H](O)[C@H]1O; X5 = N=C(NCCC[C@H](N[*:1])C(=O)[*:2])N[C@@H]1OC[C@@H](O)[C@H](O)[C@H]1O

Assay: Cytotoxicity against C57BL/6 mouse Pre-Osteoblast cells assessed as cell death upto 5 uM incubated for 4 days by CCK-8 assay
Type: toxicity, cell-based
Settings: 96 h, time 4 day
For `CC[C@H](C)[C@H](NC(=O)[C@H](CCC(=O)O)NC(=O)[C@H](CO)NC(=O)[C@@H](NC(=O)[C@H](CO)NC(C)=O)C(C)C)C(=O)N[C@@H](CCC(N)=O)C(=O)N[C@@H](CC(C)C)C(=O)N[C@@H](CCSC)C(=O)N[C@@H](Cc1cnc[nH]1)C(=O)N[C@@H](CC(N)=O)C(=O)N[C@@H](CC(C)C)C(=O)NCC(=O)N[C@@H](CCCCN)C(=O)N[C@@H](Cc1cnc[nH]1)C(=O)N[C@@H](CC(C)C)C(=O)N[C@@H](CC(N)=O)C(=O)N[C@@H](CO)C(=O)N[C@@H](CCSC)C(=O)N[C@@H](CCC(=O)O)C(=O)N[C@@H](CCCNC(=N)N)C(=O)N[C@H](C(=O)N[C@@H](CCC(=O)O)C(=O)N[C@@H](Cc1c[nH]c2ccccc12)C(=O)N[C@@H](CC(C)C)C(=O)N[C@@H](CCCNC(=N)N[C@@H]1O[C@H](CO)[C@@H](O[C@@H]2O[C@H](CO)[C@H](O)[C@H](O)[C@H]2O)[C@H](O)[C@H]1O)C(=O)N[C@@H](CCCCN)C(=O)N[C@@H](CCCCN)C(=O)N[C@@H](CC(C)C)C(=O)N[C@@H](CCC(N)=O)C(=O)N[C@@H](CC(=O)O)C(=O)N[C@H](C(=O)N[C@@H](Cc1cnc[nH]1)C(=O)N[C@@H](CC(N)=O)C(=O)N[C@@H](Cc1ccccc1)C(N)=O)C(C)C)C(C)C`, the Activity was “Non-Toxic”. With `CC[C@H](C)[C@H](NC(=O)[C@H](CCC(=O)O)NC(=O)[C@H](CO)NC(=O)[C@@H](NC(=O)[C@H](CO)NC(C)=O)C(C)C)C(=O)N[C@@H](CCC(N)=O)C(=O)N[C@@H](CC(C)C)C(=O)N[C@@H](CCSC)C(=O)N[C@@H](Cc1cnc[nH]1)C(=O)N[C@@H](CC(N)=O)C(=O)N[C@@H](CC(C)C)C(=O)NCC(=O)N[C@@H](CCCCN)C(=O)N[C@@H](Cc1cnc[nH]1)C(=O)N[C@@H](CC(C)C)C(=O)N[C@@H](CC(N)=O)C(=O)N[C@@H](CO)C(=O)N[C@@H](CCSC)C(=O)N[C@@H](CCC(=O)O)C(=O)N[C@@H](CCCNC(=N)N[C@@H]1O[C@H](CO)[C@@H](O)[C@H](O)[C@H]1NC(C)=O)C(=O)N[C@H](C(=O)N[C@@H](CCC(=O)O)C(=O)N[C@@H](Cc1c[nH]c2ccccc12)C(=O)N[C@@H](CC(C)C)C(=O)N[C@@H](CCCNC(=N)N)C(=O)N[C@@H](CCCCN)C(=O)N[C@@H](CCCCN)C(=O)N[C@@H](CC(C)C)C(=O)N[C@@H](CCC(N)=O)C(=O)N[C@@H](CC(=O)O)C(=O)N[C@H](C(=O)N[C@@H](Cc1cnc[nH]1)C(=O)N[C@@H](CC(N)=O)C(=O)N[C@@H](Cc1ccccc1)C(N)=O)C(C)C)C(C)C` the Activity was “Non-Toxic”. For `CC[C@H](C)[C@H](NC(=O)[C@H](CCC(=O)O)NC(=O)[C@H](CO)NC(=O)[C@@H](NC(=O)[C@H](CO)NC(C)=O)C(C)C)C(=O)N[C@@H](CCC(N)=O)C(=O)N[C@@H](CC(C)C)C(=O)N[C@@H](CCSC)C(=O)N[C@@H](Cc1cnc[nH]1)C(=O)N[C@@H](CC(N)=O)C(=O)N[C@@H](CC(C)C)C(=O)NCC(=O)N[C@@H](CCCCN)C(=O)N[C@@H](Cc1cnc[nH]1)C(=O)N[C@@H](CC(C)C)C(=O)N[C@@H](CC(N)=O)C(=O)N[C@@H](CO)C(=O)N[C@@H](CCSC)C(=O)N[C@@H](CCC(=O)O)C(=O)N[C@@H](CCCNC(=N)N[C@@H]1O[C@@H](C)[C@H](O)[C@@H](O)[C@H]1O)C(=O)N[C@H](C(=O)N[C@@H](CCC(=O)O)C(=O)N[C@@H](Cc1c[nH]c2ccccc12)C(=O)N[C@@H](CC(C)C)C(=O)N[C@@H](CCCNC(=N)N[C@@H]1O[C@@H](C)[C@H](O)[C@@H](O)[C@H]1O)C(=O)N[C@@H](CCCCN)C(=O)N[C@@H](CCCCN)C(=O)N[C@@H](CC(C)C)C(=O)N[C@@H](CCC(N)=O)C(=O)N[C@@H](CC(=O)O)C(=O)N[C@H](C(=O)N[C@@H](Cc1cnc[nH]1)C(=O)N[C@@H](CC(N)=O)C(=O)N[C@@H](Cc1ccccc1)C(N)=O)C(C)C)C(C)C` (Ac-SVSEIQLMHNLGKHLNSME[X6]VEWL[X6]KKLQDVHNF-NH2), the Activity was “Non-Toxic”. For `CC[C@H](C)[C@H](NC(=O)[C@H](CCC(=O)O)NC(=O)[C@H](CO)NC(=O)[C@@H](NC(=O)[C@H](CO)NC(C)=O)C(C)C)C(=O)N[C@@H](CCC(N)=O)C(=O)N[C@@H](CC(C)C)C(=O)N[C@@H](CCSC)C(=O)N[C@@H](Cc1cnc[nH]1)C(=O)N[C@@H](CC(N)=O)C(=O)N[C@@H](CC(C)C)C(=O)NCC(=O)N[C@@H](CCCCN)C(=O)N[C@@H](Cc1cnc[nH]1)C(=O)N[C@@H](CC(C)C)C(=O)N[C@@H](CC(N)=O)C(=O)N[C@@H](CO)C(=O)N[C@@H](CCSC)C(=O)N[C@@H](CCC(=O)O)C(=O)N[C@@H](CCCNC(=N)N)C(=O)N[C@H](C(=O)N[C@@H](CCC(=O)O)C(=O)N[C@@H](Cc1c[nH]c2ccccc12)C(=O)N[C@@H](CC(C)C)C(=O)N[C@@H](CCCNC(=N)N[C@@H]1O[C@H](CO)[C@@H](O)[C@H](O)[C@H]1O)C(=O)N[C@@H](CCCCN)C(=O)N[C@@H](CCCCN)C(=O)N[C@@H](CC(C)C)C(=O)N[C@@H](CCC(N)=O)C(=O)N[C@@H](CC(=O)O)C(=O)N[C@H](C(=O)N[C@@H](Cc1cnc[nH]1)C(=O)N[C@@H](CC(N)=O)C(=O)N[C@@H](Cc1ccccc1)C(N)=O)C(C)C)C(C)C`, the Activity was “Non-Toxic”. With `CC[C@H](C)[C@H](NC(=O)[C@H](CCC(=O)O)NC(=O)[C@H](CO)NC(=O)[C@@H](NC(=O)[C@H](CO)NC(C)=O)C(C)C)C(=O)N[C@@H](CCC(N)=O)C(=O)N[C@@H](CC(C)C)C(=O)N[C@@H](CCSC)C(=O)N[C@@H](Cc1cnc[nH]1)C(=O)N[C@@H](CC(N)=O)C(=O)N[C@@H](CC(C)C)C(=O)NCC(=O)N[C@@H](CCCCN)C(=O)N[C@@H](Cc1cnc[nH]1)C(=O)N[C@@H](CC(C)C)C(=O)N[C@@H](CC(N)=O)C(=O)N[C@@H](CO)C(=O)N[C@@H](CCSC)C(=O)N[C@@H](CCC(=O)O)C(=O)N[C@@H](CCCNC(=N)N[C@@H]1OC[C@@H](O)[C@H](O)[C@H]1O)C(=O)N[C@H](C(=O)N[C@@H](CCC(=O)O)C(=O)N[C@@H](Cc1c[nH]c2ccccc12)C(=O)N[C@@H](CC(C)C)C(=O)N[C@@H](CCCNC(=N)N[C@@H]1OC[C@@H](O)[C@H](O)[C@H]1O)C(=O)N[C@@H](CCCCN)C(=O)N[C@@H](CCCCN)C(=O)N[C@@H](CC(C)C)C(=O)N[C@@H](CCC(N)=O)C(=O)N[C@@H](CC(=O)O)C(=O)N[C@H](C(=O)N[C@@H](Cc1cnc[nH]1)C(=O)N[C@@H](CC(N)=O)C(=O)N[C@@H](Cc1ccccc1)C(N)=O)C(C)C)C(C)C` (Ac-SVSEIQLMHNLGKHLNSME[X5]VEWL[X5]KKLQDVHNF-NH2) the Activity was “Non-Toxic”. In the case of `CC[C@H](C)[C@H](NC(=O)[C@H](CCC(=O)O)NC(=O)[C@H](CO)NC(=O)[C@@H](NC(=O)[C@H](CO)NC(C)=O)C(C)C)C(=O)N[C@@H](CCC(N)=O)C(=O)N[C@@H](CC(C)C)C(=O)N[C@@H](CCSC)C(=O)N[C@@H](Cc1cnc[nH]1)C(=O)N[C@@H](CC(N)=O)C(=O)N[C@@H](CC(C)C)C(=O)NCC(=O)N[C@@H](CCCCN)C(=O)N[C@@H](Cc1cnc[nH]1)C(=O)N[C@@H](CC(C)C)C(=O)N[C@@H](CC(N)=O)C(=O)N[C@@H](CO)C(=O)N[C@@H](CCSC)C(=O)N[C@@H](CCC(=O)O)C(=O)N[C@@H](CCCNC(=N)N)C(=O)N[C@H](C(=O)N[C@@H](CCC(=O)O)C(=O)N[C@@H](Cc1c[nH]c2ccccc12)C(=O)N[C@@H](CC(C)C)C(=O)N[C@@H](CCCNC(=N)N[C@H]1O[C@H](CO)[C@@H](O)[C@H](O)[C@@H]1O)C(=O)N[C@@H](CCCCN)C(=O)N[C@@H](CCCCN)C(=O)N[C@@H](CC(C)C)C(=O)N[C@@H](CCC(N)=O)C(=O)N[C@@H](CC(=O)O)C(=O)N[C@H](C(=O)N[C@@H](Cc1cnc[nH]1)C(=O)N[C@@H](CC(N)=O)C(=O)N[C@@H](Cc1ccccc1)C(N)=O)C(C)C)C(C)C`, the Activity was “Non-Toxic”. For `CC[C@H](C)[C@H](NC(=O)[C@H](CCC(=O)O)NC(=O)[C@H](CO)NC(=O)[C@@H](NC(=O)[C@H](CO)NC(C)=O)C(C)C)C(=O)N[C@@H](CCC(N)=O)C(=O)N[C@@H](CC(C)C)C(=O)N[C@@H](CCSC)C(=O)N[C@@H](Cc1cnc[nH]1)C(=O)N[C@@H](CC(N)=O)C(=O)N[C@@H](CC(C)C)C(=O)NCC(=O)N[C@@H](CCCCN)C(=O)N[C@@H](Cc1cnc[nH]1)C(=O)N[C@@H](CC(C)C)C(=O)N[C@@H](CC(N)=O)C(=O)N[C@@H](CO)C(=O)N[C@@H](CCSC)C(=O)N[C@@H](CCC(=O)O)C(=O)N[C@@H](CCCNC(=N)N[C@@H]1O[C@H](CO)[C@@H](O)[C@H]1O)C(=O)N[C@H](C(=O)N[C@@H](CCC(=O)O)C(=O)N[C@@H](Cc1c[nH]c2ccccc12)C(=O)N[C@@H](CC(C)C)C(=O)N[C@@H](CCCNC(=N)N[C@@H]1O[C@H](CO)[C@@H](O)[C@H]1O)C(=O)N[C@@H](CCCCN)C(=O)N[C@@H](CCCCN)C(=O)N[C@@H](CC(C)C)C(=O)N[C@@H](CCC(N)=O)C(=O)N[C@@H](CC(=O)O)C(=O)N[C@H](C(=O)N[C@@H](Cc1cnc[nH]1)C(=O)N[C@@H](CC(N)=O)C(=O)N[C@@H](Cc1ccccc1)C(N)=O)C(C)C)C(C)C`, the Activity was “Non-Toxic”. For `CC[C@H](C)[C@H](NC(=O)[C@H](CCC(=O)O)NC(=O)[C@H](CO)NC(=O)[C@@H](NC(=O)[C@H](CO)NC(C)=O)C(C)C)C(=O)N[C@@H](CCC(N)=O)C(=O)N[C@@H](CC(C)C)C(=O)N[C@@H](CCSC)C(=O)N[C@@H](Cc1cnc[nH]1)C(=O)N[C@@H](CC(N)=O)C(=O)N[C@@H](CC(C)C)C(=O)NCC(=O)N[C@@H](CCCCN)C(=O)N[C@@H](Cc1cnc[nH]1)C(=O)N[C@@H](CC(C)C)C(=O)N[C@@H](CC(N)=O)C(=O)N[C@@H](CO)C(=O)N[C@@H](CCSC)C(=O)N[C@@H](CCC(=O)O)C(=O)N[C@@H](CCCNC(=N)N[C@@H]1O[C@H](CO)[C@@H](O[C@H]2O[C@H](CO)[C@@H](O)[C@H](O)[C@H]2O)[C@H](O)[C@H]1O)C(=O)N[C@H](C(=O)N[C@@H](CCC(=O)O)C(=O)N[C@@H](Cc1c[nH]c2ccccc12)C(=O)N[C@@H](CC(C)C)C(=O)N[C@@H](CCCNC(=N)N[C@@H]1O[C@H](CO)[C@@H](O[C@H]2O[C@H](CO)[C@@H](O)[C@H](O)[C@H]2O)[C@H](O)[C@H]1O)C(=O)N[C@@H](CCCCN)C(=O)N[C@@H](CCCCN)C(=O)N[C@@H](CC(C)C)C(=O)N[C@@H](CCC(N)=O)C(=O)N[C@@H](CC(=O)O)C(=O)N[C@H](C(=O)N[C@@H](Cc1cnc[nH]1)C(=O)N[C@@H](CC(N)=O)C(=O)N[C@@H](Cc1ccccc1)C(N)=O)C(C)C)C(C)C`, the Activity was “Non-Toxic”.
